We go through 36 compounds from US9018383B2, “Acylamino-substituted cyclic carboxylic acid derivatives and their use as pharmaceuticals” (Sanofi, priority 2009, dated 2015).

For the assay, the target named is human Edg-2 receptor (Homo sapiens, UniProt Q92633). Description: Determination of Edg-2 receptor inhibition by FLIPR measurements (LPA-mediated calcium liberation). The assay is classed as cell-based. To be noted: CHO cells overexpressing human Edg-2 receptor, LPA 100 nM, fluo-4 calcium fluorescence; read-out: Inhibitory concentrations IC50 for inhibition of the Edg-2 receptor. As to the method:
A) Determination of Edg-2 Receptor Inhibition by Fluorescence Imaging Plate Reader (FLIPR) Measurements
The inhibition of the Edg-2 receptor (LPA1 receptor) by the compounds of the invention was quantified by the inhibitory effect on the LPA-mediated calcium liberation in a cell-based calcium fluorescence assay by use of Chinese hamster ovarian (CHO) cells in which the human Edg-2 receptor was stably overexpressed (Flp-In system, Invitrogen). […] Changes in intracellular calcium were determined by fluorescence measurement with the calcium-sensitive dye fluo-4 (Invitrogen) in a fluorescence imaging plate reader (FLIPR, […]).
CHO cells stably overexpressing the human Edg-2 receptor were seeded (40.000 per well) in black clear-bottomed poly-D-lysine-coated 96 well plates (Becton Dickinson, Biocoat cellware) approximately 18-24 h prior to the experiments. Cells were grown in an incubator at 37° C., 5% carbon dioxide and 95% humidity in cell culture media based on F-12 glutamax media (Gibco, #31765) supplemented with 1% (vol/vol) penicilline/streptomycine (PAN, #P06-07100), 10% (vol/vol) fetal calf serum (FCS, PAA, #A15-151) and hygromycin B (Invitrogen, #10687-010) 300 mg/l (final concentrations).
Prior to the FLIPR experiment, cells were loaded with fluo-4 acetoxymethyl ester (fluo-4 AM, Invitrogen, #F14202) for 60 min in an incubator at 37° C., 5% carbon dioxide and 95% humidity in dye-loading buffer consisting of Hanks' Balanced Salt Solution (HBSS, Invitrogen, #14065049) supplemented with fluo-4 AM at 2 μM (all data given for final concentration), Pluronic® F-127 0.05% (vol/vol) (Invitrogen, #P-3000 MP), HEPES 20 mM (Gibco, #15630), probenecid 2.5 mM (Sigma, #P-8761) and bovine serum albumin 0.05% (BSA, Sigma, #A-6003), adjusted to pH 7.5 with sodium hydroxide. During cell loading, fluo-4 AM is cleaved by intracellular esterase resulting in trapping of the dye fluo-4 within the cells. Loading was terminated by washing of the cells in a cell washer (Tecan Power washer) three times with the buffer specified afore but without fluo-4 AM and BSA. This latter buffer was also used as the buffer in the subsequent cell fluorescence measurements.
The dye-loaded and washed cells were pre-incubated for approximately 5 min with various concentrations of the test compound added as a solution in DMSO (0.3% vol/vol maximum final concentration of DMSO), or with DMSO in the respective concentration only (positive control). Subsequent addition of LPA (18:1, 1-oleoyl-sn-glycerol 3-phosphate; 100 nM final concentration) leads to liberation of intracellular calcium from internal stores resulting in a large transient increase of the fluo-4 fluorescence signal which was monitored over approximately 3 min. The percent inhibition caused by the test compound was determined from the maximum fluorescence response after LPA addition to cells pre-incubated with the compound as compared to the maximum fluorescence response after LPA addition to cells pre-incubated with DMSO only. All fluorescence values were corrected for the baseline fluorescence values obtained with cells which were pre-incubated with DMSO only and were not treated with LPA (baseline control). All measurements were performed in triplicate. From the percent inhibitions the inhibitory concentration IC50 was determined.

Chain of human Edg-2 receptor (Q92633 whole entry): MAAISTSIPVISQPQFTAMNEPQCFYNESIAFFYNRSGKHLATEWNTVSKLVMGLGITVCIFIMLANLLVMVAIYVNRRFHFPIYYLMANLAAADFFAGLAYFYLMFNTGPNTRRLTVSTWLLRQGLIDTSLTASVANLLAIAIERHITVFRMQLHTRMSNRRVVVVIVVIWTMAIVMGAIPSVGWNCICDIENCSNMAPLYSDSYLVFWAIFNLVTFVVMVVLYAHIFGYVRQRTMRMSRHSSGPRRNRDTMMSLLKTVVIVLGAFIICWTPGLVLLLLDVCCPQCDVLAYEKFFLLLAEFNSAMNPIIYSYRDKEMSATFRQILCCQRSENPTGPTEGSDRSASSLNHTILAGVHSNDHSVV

As to `COc1cc(F)c(-c2cc(C(=O)N[C@]3(C(=O)O)CC[C@@H](C)CC3)ccc2C(F)(F)F)c(F)c1` [Example 444, 1-[(2′,6′-Difluoro-4′-methoxy-6-trifluoromethyl-biphenyl-3-carbonyl)-amino]-4-methyl-cyclohexanecarboxylic acid], the IC50 is 100 to 1000 nM.
With `CCc1ncc(C(=O)N[C@]2(C(=O)O)CC[C@H](CC)CC2)cc1OCCc1cccc(Cl)c1` [Example 437, cis-1-({5-[2-(3-Chloro-phenyl)-ethoxy]-6-ethyl-pyridine-3-carbonyl}-amino)-4-ethyl-cyclohexanecarboxylic acid], the IC50 was less than 100 nM.
Take `COc1ccc(C(=O)NC2(C(=O)O)CCC(OC)CC2)cc1OCCc1cccc(C)c1` (stereo not drawn) [Example 374]: the IC50 was less than 100 nM.
Take `COc1ncc(C(=O)N[C@]2(C(=O)O)CC[C@@H](C)CC2)cc1-c1cccc(Cl)c1Cl` [Example 311]: the IC50 is less than 100 nM.
Regarding `COc1ccc(C(=O)N[C@]2(C(=O)O)CC[C@H](C)CC2)cc1OCCc1cc(OC(F)(F)F)ccc1F` [Example 405, cis-1-{3-[2-(2-Fluoro-5-trifluoromethoxy-phenyl)-ethoxy]-4-methoxy-benzoylamino}-4-methyl-cyclohexanecarboxylic acid], the IC50 is less than 100 nM.
Then `COc1ccc(C(=O)N[C@]2(C(=O)O)CC[C@H](C)CC2)cc1-c1cccc(C(F)(F)F)c1` [Example 333], with less than 100 nM.
Consider `Cc1cccc(CCOc2cc(C(=O)N[C@]3(C(=O)O)CC[C@H](C(F)(F)F)CC3)ccc2C2COC2)c1` [Example 131, cis-1-[4-Oxetan-3-yl-3-(2-m-tolyl-ethoxy)-benzoylamino]-4-trifluoromethyl-cyclohexanecarboxylic acid], for which the IC50 is less than 100 nM.
As for `COc1ccc(C(=O)NC2(C(=O)O)CCCCCC2)cc1CCCc1cccc(C)c1` [Example 72, 1-[4-Methoxy-3-(3-m-tolyl-propyl)-benzoylamino]-cycloheptanecarboxylic acid], the IC50 was less than 100 nM.
Then `COc1ncc(C(=O)NC2(C(=O)O)CCCCCC2)cc1-c1cccc(Cl)c1Cl` [Example 97], with less than 100 nM; and `COc1cccc(CCOc2cc(C(=O)NC3(C(=O)O)CCCCCC3)ccc2OC)c1` [Example 7], with less than 100 nM; and `COc1ccc(C(=O)NC2(C(=O)O)CCCC(C)C2)cc1OCCc1cccc(C)c1` (stereo not drawn) [Example 367], with 100 to 1000 nM.
The same measure for `CC[C@H]1CC[C@@](NC(=O)c2cc(F)c(OCCO)c(-c3cccc(C(F)(F)F)c3)c2)(C(=O)O)CC1` [Example 362, trans-4-Ethyl-1-{[5-fluoro-6-(2-hydroxy-ethoxy)-3′-trifluoromethyl-biphenyl-3-carbonyl]-amino}-cyclohexanecarboxylic acid]: less than 100 nM; for `CC[C@H]1CC[C@@](NC(=O)c2cc(F)c(OC)c(OCCc3cccc(CCO)c3)c2)(C(=O)O)CC1` [Example 394, trans-4-Ethyl-1-(3-fluoro-5-{2-[3-(2-hydroxy-ethyl)-phenyl]-ethoxy}-4-methoxy-benzoylamino)-cyclohexanecarboxylic acid]: less than 100 nM.
Then `CC[C@H]1CC[C@@](NC(=O)c2cnc(OC)c(OCCc3ccccc3)c2)(C(=O)O)CC1` [Example 355, trans-4-Ethyl-1-[(6-methoxy-5-phenethyloxy-pyridine-3-carbonyl)-amino]-cyclohexanecarboxylic acid], with less than 100 nM.
Turning to `COc1ccc(C(=O)NC2(C(=O)O)CCCC2OC)cc1OCCc1cccc(C)c1` (stereo not drawn) [Example 68, 2-Methoxy-1-[4-methoxy-3-(2-m-tolyl-ethoxy)-benzoylamino]-cyclopentanecarboxylic acid], the IC50 is less than 100 nM.
Consider `COc1ccc(C(=O)NC2(C(=O)O)CCC(C(F)(F)F)CC2)cc1OCCc1cccc(C)c1` (stereo not drawn) [Example 28], for which the IC50 was less than 100 nM.
Then `COc1ccc(C(=O)NC2(C(=O)O)CCCC2)cc1OCCc1cccc(C)c1` [Example 35], with 1000 to 30000 nM; and `Cc1cccc(CCOc2cc(C(=O)N[C@]3(C(=O)O)CC[C@H](C(F)(F)F)CC3)cc3c2OCO3)c1` [Example 133, cis-1-{[7-(2-m-Tolyl-ethoxy)-benzo[1,3]dioxole-5-carbonyl]-amino}-4-trifluoromethyl-cyclohexanecarboxylic acid], with less than 100 nM; and `COc1ccc(C(=O)NC2(C(=O)O)CCCCCC2)cc1OCCc1ccc(Cl)cc1Cl` [Example 15], with 1000 to 30000 nM.
The same measure for `COc1ccc(C(=O)NC2(C(=O)O)CCCCCC2)cc1OCCc1cc(Cl)ccc1Cl` [Example 17]: less than 100 nM; for `CC[C@H]1CC[C@](NC(=O)c2cc(F)c(OCCO)c(-c3ccc(OC)c(Cl)c3)c2)(C(=O)O)CC1` [Example 381]: less than 100 nM.
The same measure for `COc1ccc(C(=O)NC2(C(=O)O)CCCCCC2)cc1OCCc1cccc(C2COC2)c1` [Example 129, 1-{4-Methoxy-3-[2-(3-oxetan-3-yl-phenyl)-ethoxy]-benzoylamino}-cycloheptanecarboxylic acid]: 100 to 1000 nM; for `COc1ccc(C(=O)NC2(C(=O)O)CCC(C(C)C)CC2)cc1OCCc1cccc(C)c1` (stereo not drawn) [Example 370]: less than 100 nM; for `COc1ncc(C(=O)NC2(C(=O)O)CCCCCC2)cc1OCCc1ccccc1` [Example 88, 1-{[5-(2-Phenyl-ethoxy)-6-methoxy-pyridine-3-carbonyl]-amino}-cycloheptanecarboxylic acid]: less than 100 nM.
Regarding `COc1ccc(C(=O)NC2(C(=O)O)CCC(C(C)(C)C)CC2)cc1OCCc1cccc(C)c1` (stereo not drawn) [Example 371], the IC50 was 100 to 1000 nM.
Then `Cc1cccc(CCOc2cc(C(=O)NC3(C(=O)O)CCCCCC3)ccc2Br)c1` [Example 65, 1-[4-Bromo-3-(2-m-tolyl-ethoxy)-benzoylamino]-cycloheptanecarboxylic acid], with less than 100 nM; and `CCc1ccc(C(=O)NC2(C(=O)O)CCCCCC2)cc1OCCc1cccc(C)c1` [Example 62, 1-[4-Ethyl-3-(2-m-tolyl-ethoxy)-benzoylamino]-cycloheptanecarboxylic acid], with less than 100 nM.
Then `COc1ccc(C(=O)NC2(C(=O)O)CCCC3(CC2)OCCO3)cc1OCCc1cccc(C)c1` (stereo not drawn) [Example 51, 8-[4-Methoxy-3-(2-m-tolyl-ethoxy)-benzoylamino]-1,4-dioxa-spiro[4.6]undecane-8-carboxylic acid], with less than 100 nM.
Consider `COc1ncc(C(=O)N[C@]2(C(=O)O)CC[C@H](C(F)(F)F)CC2)cc1-c1cccc(C(F)(F)F)c1` [Example 376], for which the IC50 was less than 100 nM.
Turning to `COc1ncc(C(=O)NC2(C(=O)O)CCCCCC2)cc1-c1cc(F)c(F)c(F)c1` [Example 98], the IC50 is less than 100 nM.
`COc1ccc(C(=O)NC2(C(=O)O)CCC3CC3CC2)cc1OCCc1cccc(C)c1` (stereo not drawn) [Example 75]: the IC50 was less than 100 nM.
Regarding `COc1ncc(C(=O)N[C@]2(C(=O)O)CC[C@@H](C)CC2)cc1OCCc1cc(Cl)ccc1F` [Example 81, trans-1-({5-[2-(5-Chloro-2-fluoro-phenyl)-ethoxy]-6-methoxy-pyridine-3-carbonyl}-amino)-4-methyl-cyclohexanecarboxylic acid], the IC50 was less than 100 nM.
Then `COc1ccc(C(=O)NC2(C(=O)O)CCCCCC2)cc1OCCc1cccs1` [Example 6], with 100 to 1000 nM; and `CC[C@H]1CC[C@](NC(=O)c2ccc(CO)c(-c3cccc(C(F)(F)F)c3)c2)(C(=O)O)CC1` [Example 430, cis-4-Ethyl-1-[(6-hydroxymethyl-3′-trifluoromethyl-biphenyl-3-carbonyl)-amino]-cyclohexanecarboxylic acid], with 100 to 1000 nM; and `COCCOc1ccc(C(=O)N[C@]2(C(=O)O)CC[C@@H](C)CC2)cc1OCCc1cccc(Cl)c1` [Example 114, trans-1-[3-[2-(3-Chloro-phenyl)-ethoxy]-4-(2-methoxy-ethoxy)-benzoylamino]-4-methyl-cyclohexanecarboxylic acid], with 100 to 1000 nM.
In the case of `CC[C@H]1CC[C@](NC(=O)c2cnc(OCCO)c(-c3ccc(F)c(F)c3)c2)(C(=O)O)CC1` [Example 414], the IC50 is less than 100 nM.
